From the supplement of paper PMC11061612

Key:
Assay in all cases: combination Emax (second highest fraction inhibited in the dose matrix, 72 h); higher = more inhibition; extreme values may be limits of the assay
[1] = tested on: DND-41 (T-Lymphoblastic Leukemia)
How it was run: (§1)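 Cell lines in DMEM/F12 or RPMI with 10% FBS were plated in 1536-well plates, held 24 hours at 37°C, 5% CO2, then given two-drug dose matrices for 72 hours (DMSO typically 0.2%). Viability was read by CellTiter-Glo 2.0 luminescence and scaled as inhibition from 0 (vehicle wells) to 1 (blank wells). Combination Emax is the second-highest inhibition in the matrix; Bliss excess is observed combination effect minus expected EA + EB − EA·EB, EA and EB being single-agent effects.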

[2] = tested on: BFTC-905 (Bladder Carcinoma)
How it was run: as §1

[3] = tested on: KYSE-180 (Esophageal Squamous Cell Carcinoma)
How it was run: as §1

[4] = tested on: L-540 (Hodgkin's Lymphoma)
How it was run: as §1

TC-71 (Ewing's Sarcoma) = tested on: TC-71 (Ewing's Sarcoma)
How it was run: as §1

[5] = tested on: COLO-678 (Colorectal Carcinoma)
How it was run: as §1

[6] = tested on: KCL-22 (Chronic Myelogenous Leukemia)
How it was run: as §1

MEL-JUSO (Melanoma) = tested on: MEL-JUSO (Melanoma)
How it was run: as §1

[7] = tested on: P12-ICHIKAWA (T-Lymphoblastic Leukemia)
How it was run: as §1

WIL2-NS (Non-Cancerous) = tested on: WIL2-NS (Non-Cancerous)
How it was run: as §1

[8] = tested on: MOLT-16 (T-Lymphoblastic Leukemia)
How it was run: as §1

[9] = tested on: PANC-08-13 (Pancreatic Carcinoma)
How it was run: as §1

U251 (Low Grade Glioma) = tested on: U251 (Low Grade Glioma)
How it was run: as §1

NCI-H2818 (Mesothelioma) = tested on: NCI-H2818 (Mesothelioma)
How it was run: as §1

LN-18 (Glioblastoma) = tested on: LN-18 (Glioblastoma)
How it was run: as §1

ES1 (Ewing's Sarcoma) = tested on: ES1 (Ewing's Sarcoma)
How it was run: as §1

[10] = tested on: TOV-112D (Ovarian Carcinoma)
How it was run: as §1

[11] = tested on: MFM-223 (Breast Carcinoma)
How it was run: as §1

[12] = tested on: SW1417 (Colorectal Carcinoma)
How it was run: as §1

[13] = tested on: EVSA-T (Breast Carcinoma)
How it was run: as §1

Row | Structure (SMILES) | combination Emax [1] | combination Emax [2] | combination Emax [3] | combination Emax [4] | combination Emax (TC-71 (Ewing's Sarcoma)) | combination Emax [5] | combination Emax [6] | combination Emax (MEL-JUSO (Melanoma)) | combination Emax [7] | combination Emax (WIL2-NS (Non-Cancerous)) | combination Emax [8] | combination Emax [9] | combination Emax (U251 (Low Grade Glioma)) | combination Emax (NCI-H2818 (Mesothelioma)) | combination Emax (LN-18 (Glioblastoma)) | combination Emax (ES1 (Ewing's Sarcoma)) | combination Emax [10] | combination Emax [11] | combination Emax [12] | combination Emax [13]
1 | COc1nnc2ccc(N3CCC(c4ccc(OCCN5CCN(C)C(=O)[C@H]5C)cc4)CC3)nn12 [AZD5153] + C[C@@H]1COCCN1C2=NC(=NC(=C2)C3(CC3)[S@](=N)(=O)C)C4=C5C=CNC5=NC=C4 [AZD6738] (first compound max 1 µM, 7x7, partner max 10 µM) | 0.979 | 0.802 | 0.591 | 0.913 | 0.997 | 0.484 | 0.978 | 0.502 | 1 | 0.935 | 1 | 0.831 | 0.836 | 0.281 | 0.815 | 0.918 | 0.849 | 0.734 | 0.662 | 0.977
2 | COc1nnc2ccc(N3CCC(c4ccc(OCCN5CCN(C)C(=O)[C@H]5C)cc4)CC3)nn12 [AZD5153] + C=CCn1c(=O)c2cnc(Nc3ccc(N4CCN(C)CC4)cc3)nc2n1-c1cccc(C(C)(C)O)n1 [AZD1775] (first compound max 1 µM, partner max 1 µM) | 0.941 | 0.63 | 0.742 | 0.925 | 0.935 | 0.531 | 0.927 | 0.491 | 1 | 0.878 | 1 | 0.679 | 0.799 | 0.327 | 0.649 | 0.686 | 0.815 | 0.538 | 0.601 | 0.942
3 | CN(CCO)CC[C@H](CSc1ccccc1)Nc1ccc(S(=O)(=O)NC(=O)c2ccc(N3CCC([C@@H](O)c4ccccc4-c4ccc(Cl)cc4)CC3)cc2)cc1S(=O)(=O)C(F)(F)F [AZD4320] + C=CCn1c(=O)c2cnc(Nc3ccc(N4CCN(C)CC4)cc3)nc2n1-c1cccc(C(C)(C)O)n1 [AZD1775] (first compound max 1 µM, partner max 1 µM) | 1 | 0.759 | 0.783 | 0.979 | 0.926 | 0.367 | 0.937 | 0.73 | 1 | 0.973 | 1 | 0.492 | 0.289 | 0.371 | 0.537 | 0.827 | 0.496 | 0.383 | 0.853 | 0.191
4 | Cn1cnc2c(F)c(Nc3ccc(Br)cc3Cl)c(C(=O)NOCCO)cc21 [Selumetinib] + CCN(CCO)CCCOc1ccc2c(Nc3cc(CC(=O)Nc4cccc(F)c4)[nH]n3)ncnc2c1 [AZD2811] (first compound max 10 µM, 7x7, partner max 1 µM) | 0.199 | 0.781 | 0.103 | 0.194 | 0.838 | 0.51 | 0.593 | 0.427 | 1 | 0.259 | 1 | 0.22 | 0.268 | 0.168 | 0.34 | 0.532 | 0.349 | 0.17 | 0.559 | 0.283
5 | CC1(C)CCC(CN2CCN(c3ccc(C(=O)NS(=O)(=O)c4ccc(NCC5CCOCC5)c([N+](=O)[O-])c4)c(Oc4cnc5[nH]ccc5c4)c3)CC2)=C(c2ccc(Cl)cc2)C1 [Venetoclax] + C[C@@H](Nc1cc(F)cc(F)c1)c1cc(C(=O)N(C)C)cc2c(=O)cc(N3CCOCC3)oc12 [AZD8186] (first compound max 1 µM, 7x7, partner max 3 µM) | 0.921 | 0.108 | 0.107 | 0.661 | 0.147 | 0.119 | 0.299 | 0.0937 | 0.0737 | 0.772 | 0.629 | 0.184 | 0.0464 | 0.129 | 0.378 | 0.395 | 0.102 | 0.11 | 0.172 | 0.79
